PubChem BioAssay (NCI)
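Step 1: Grow cells in 96-well plates. Step 2: Expose to compound for 48 hours at 5 concentrations. Step 3: Interpolate endpoints linearly; if unreached, use highest concentration. GI50 = concentration required for 50% inhibition of growth. At the TGI there is no net growth.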 The source made the active and inactive calls. Cut-off read from the data, not from the text of the source: active = GI50 below about 0.43 µM; inactive = the rest.

Experiments:
Experiment in all cases: NCI tumour cell line growth inhibition, 48 h
U251 CNS = test system: U251 CNS
786-0 renal = test system: 786-0 renal
SF-295 CNS = test system: SF-295 CNS
HCT-15 colon = test system: HCT-15 colon
OVCAR-8 ovarian = test system: OVCAR-8 ovarian
DU-145 prostate = test system: DU-145 prostate
COLO 205 colon = test system: COLO 205 colon
SK-MEL-5 melanoma = test system: SK-MEL-5 melanoma
UO-31 renal = test system: UO-31 renal

Compound	GI50 (U251 CNS) [µM]	TGI (U251 CNS) [µM]	GI50 (786-0 renal) [µM]	GI50 (SF-295 CNS) [µM]	TGI (SF-295 CNS) [µM]	GI50 (HCT-15 colon) [µM]	TGI (HCT-15 colon) [µM]	GI50 (OVCAR-8 ovarian) [µM]	TGI (OVCAR-8 ovarian) [µM]	GI50 (DU-145 prostate) [µM]	TGI (DU-145 prostate) [µM]	GI50 (COLO 205 colon) [µM]	TGI (COLO 205 colon) [µM]	GI50 (SK-MEL-5 melanoma) [µM]	TGI (SK-MEL-5 melanoma) [µM]	GI50 (UO-31 renal) [µM]	TGI (UO-31 renal) [µM]	TGI (786-0 renal) [µM]	outcome (COLO 205 colon)
CC12CCC3C(CCC4Cc5[nH]c6ccccc6c5CC43C)C1CCC2O (configuration not stated)	0.646	> 48	0.835	0.3	3.26	0.695	> 100	4.1	> 100	1.69	5.5	2.76	6.78	0.75	> 100	4.37	> 100	–	–
Nc1c(C(=O)c2cccc(CCCN3CCOCC3)c2)cnn1-c1ccc(F)cc1	> 25	> 25	> 25	> 25	> 25	> 25	> 25	> 25	> 25	> 25	> 25	> 25	> 25	24.7	> 25	> 25	> 25	> 25	–
CCNC(=O)[C@@H]1CCCN2C(=O)CC[C@H](NC(=O)[C@H](Cc3ccc(OP(=O)(O)O)cc3)NC(C)=O)C(=O)N12	> 25	> 25	> 25	> 25	> 25	> 25	> 25	> 25	> 25	> 25	> 25	> 25	> 25	> 25	> 25	> 25	> 25	> 25	–
O=C(NC1CCN(Cc2ccccc2)CC1)c1cc(-c2ccncc2)nc2ccc(Cl)cc12	17.1	> 71.7	6.84	17.4	53.5	10.5	> 48.2	22.5	> 72.9	20.1	63.1	7.76	42.7	9.07	21.7	3.12	33.9	28.7	–
CCc1nc(N)nc(N)c1-c1ccc(NCCN)c([N+](=O)[O-])c1	–	> 100	–	–	> 100	–	> 100	–	> 100	–	> 100	–	40.4	–	40	–	> 100	> 100	–
Cn1cc(-c2ccc3c(Nc4cccc(NC(=O)Nc5cccc(F)c5)c4)ncnc3c2)cn1	1.79	5.07	1.87	1.81	8.42	2.5	13.1	2.25	> 100	1.86	6.6	0.0503	13.4	1.53	2.94	2.09	13.7	4.46	–
COC(=O)CCC(=O)C(=O)OC	33400	–	33000	42000	–	31500	–	63200	–	31700	–	–	–	94300	–	15000	85700	–	inactive
COc1cccc(C2c3cc4c(cc3OC(C)(N3CCCC3)C2C)OCO4)c1OC (configuration not stated)	–	24.5	–	–	> 100	–	30.7	–	98.1	–	49.9	–	24.6	–	28.4	–	37.5	> 100	–
